One experiment concerns the target T1, His6-TEV-PPARγ-(234-505) (Homo sapiens, UniProt P37231).
T1 construct: The His6-TEV-PPARγ-(234-505) protein for assay was expressed and purified; TEV cleavage site (N); made in house
T1 sequence (P37231 234-505): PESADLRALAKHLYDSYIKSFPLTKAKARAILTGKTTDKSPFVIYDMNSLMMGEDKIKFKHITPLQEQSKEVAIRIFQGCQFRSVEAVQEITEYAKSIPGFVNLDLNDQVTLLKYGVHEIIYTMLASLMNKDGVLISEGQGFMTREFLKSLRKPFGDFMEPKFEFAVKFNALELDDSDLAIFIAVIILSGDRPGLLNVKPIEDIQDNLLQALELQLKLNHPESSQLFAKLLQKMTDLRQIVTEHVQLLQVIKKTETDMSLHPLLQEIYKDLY
In words: TR-FRET Assay to Measure Co-R Peptide Recruitment to PPARγ. As to conditions: Co-R peptide (SMRT-ID2) recruitment; top final concentration 20 μM; read-out: TR-FRET i-Ag; AC50. Type of experiment: biochemical. In a few lines:
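His-tagged PPARγ (or controls) was preincubated with compound for 20 minutes at room temperature, then 5 nM anti-His terbium antibody and 200 nM FITC-labeled SMRT-ID2 corepressor peptide (final) were added for a further hour. TR-FRET signal was normalized to percent response using 500 nM T0070907 and DMSO controls.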

For the next experiment, the system named is UM-UC-9 engineered cells. The experiment can be described thus: Cell proliferation / short-term viability assay, CellTiter-Glo 144 h. Type of experiment: cell-based, human. To be noted: read-out: CTGlo 144 h UMUC9.5, G150. The method, boiled down: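 UM-UC-9 engineered assay-ready cells seeded at 500 cells/well in high-glucose DMEM/10% FBS, treated from dose-response plates, grown at 37° C, 5% CO2. CellTiter-Glo 2.0 luminescence read on day 7, with a day-0 pretreatment plate as T0 reference and DMSO wells as negative control.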
In general terms: Cellular ATP, detected with luciferase, serves as a proxy for viable cell number.

Read-outs that look alike come from different tables or passages of the source. Some results are limits rather than exact numbers.

“(S)-4-(5-(5-fluoro-2-methoxypyridin-4-yl)-1H-pyrazole-3-carbonyl)-N—(((S)-3-(trifluoromethyl)-5,6-dihydro-8H-[1,2,4]triazolo[3,4-c][1,4]oxazin-6-yl)methyl)-4-azaspiro[2.5]octane-7-carboxamide and (S)-4-(5-(5-fluoro-2-methoxypyridin-4-yl)-1H-pyrazole-3-carbonyl)-N—(((R)-3-(trifluoromethyl)-5,6-dihydro-8H-[1,2,4]triazolo[3,4-c][1,4]oxazin-6-yl)methyl)-4-azaspiro[2.5]octane-7-carboxamide [Example 357]”: the AC50 at His6-TEV-PPARγ-(234-505) was 45.1 nM. Also, the IC50 in the experiment with UM-UC-9 engineered cells came to 2190 nM.
As for `COc1cc(-c2cc(C(=O)N3CC[C@H](C(=O)NCc4ncc(N5CC(C#N)C5)cc4Cl)CC34CC4)n[nH]2)c(F)cn1` [Example 393, (S)—N-((3-chloro-5-(3-cyanoazetidin-1-yl)pyridin-2-yl)methyl)-4-(5-(5-fluoro-2-methoxypyridin-4-yl)-1H-pyrazole-3-carbonyl)-4-azaspiro[2.5]octane-7-carboxamide], the AC50 at His6-TEV-PPARγ-(234-505) was determined as 9.2 nM. The IC50 with UM-UC-9 engineered cells (Homo sapiens, UM-UC-9, 144 h) was 106 nM.
Regarding `COc1cc(-c2cc(C(=O)N3[C@@H]4CC[C@H]3C[C@H](C(=O)N[C@H]3CC[C@](O)(C(F)(F)F)CC3)C4)n[nH]2)c(F)cn1` [Example 170-B, (1R,3s,5S)-8-(5-(5-fluoro-2-methoxypyridin-4-yl)-1H-pyrazole-3-carbonyl)-N-((1s,4S)-4-hydroxy-4-(trifluoromethyl)cyclohexyl)-8-azabicyclo[3.2.1]octane-3-carboxamide], the AC50 at His6-TEV-PPARγ-(234-505) came to 1110 nM. In addition, in the experiment with UM-UC-9 engineered cells (Homo sapiens, UM-UC-9, 144 h), the IC50 was found to be 3560 nM.
With `COc1cc(-c2cc(C(=O)N3[C@@H]4CC[C@H]3C[C@H](C(=O)NCc3ccc5c(c3)c(F)nn5C)C4)n[nH]2)c(F)cn1` [Example 277, (1R,3s,5S)—N-((3-fluoro-1-methyl-1H-indazol-5-yl)methyl)-8-(5-(5-fluoro-2-methoxypyridin-4-yl)-1H-pyrazole-3-carbonyl)-8-azabicyclo[3.2.1]octane-3-carboxamide], the AC50 at His6-TEV-PPARγ-(234-505) is 3.3 nM. In the experiment with UM-UC-9 engineered cells (Homo sapiens, UM-UC-9, 144 h), the IC50 worked out at 29 nM.
Taken in the same sequence, the figures for `COc1cc(-c2cc(C(=O)N3CC[C@H](C(=O)NC4(C#N)CC4)CC34CC4)n[nH]2)c(F)cn1` [Example 448, (S)—N-(1-cyanocyclopropyl)-4-(5-(5-fluoro-2-methoxypyridin-4-yl)-1H-pyrazole-3-carbonyl)-4-azaspiro[2.5]octane-7-carboxamide] were 123 nM and 1640 nM.
`COc1cc(-c2cc(C(=O)N3CC[C@H](C(=O)NC4CCN(CC(F)(F)CO)C4)CC34CC4)n[nH]2)c(F)cn1` (single isomer, unassigned) [Example 459-B]: the AC50 at His6-TEV-PPARγ-(234-505) worked out at 13.1 nM. In addition, the IC50 in the experiment with UM-UC-9 engineered cells was 83.4 nM.
In the case of `COc1cc(-c2cc(C(=O)N3CCC(C(=O)NCc4ncc(Cl)cn4)CC3)n[nH]2)c(Cl)cn1` [Example 138, 1-(5-(5-chloro-2-methoxypyridin-4-yl)-1H-pyrazole-3-carbonyl)-N-((5-chloropyrimidin-2-yl)methyl)piperidine-4-carboxamide], the AC50 at His6-TEV-PPARγ-(234-505) stood at 501 nM. Moreover, in the experiment on UM-UC-9 engineered cells (Homo sapiens, UM-UC-9, 144 h), the IC50 turned out to be 1470 nM.
Taken in the same sequence, the figures for `COc1cc(-c2cc(C(=O)N3CCC(C(=O)NCC4CC(OC)C4)CC3)n[nH]2)c(Cl)cn1` (mixture of isomers) [Example 145, 1-(5-(5-chloro-2-methoxypyridin-4-yl)-1H-pyrazole-3-carbonyl)-N-((3-methoxycyclobutyl)methyl)piperidine-4-carboxamide] were 688 nM and 4120 nM.
For `Cc1cc(-c2cc(C(=O)N3CC[C@@H](C(=O)NC4CCC5(CCO5)CC4)CC34CC4)n[nH]2)ncn1` (mixture of isomers) [Example 300-A, (R)-4-(5-(6-methylpyrimidin-4-yl)-1H-pyrazole-3-carbonyl)-N-(1-oxaspiro[3.5]nonan-7-yl)-4-azaspiro[2.5]octane-7-carboxamide], in that order: 18000 nM and over 4000 nM.
Turning to `COc1cc(-c2cc(C(=O)N3CCC(C(=O)NCC4CCc5[nH]ncc5C4)CC34CC4)n[nH]2)c(F)cn1` (single isomer, unassigned) [Example 341-B], the AC50 at His6-TEV-PPARγ-(234-505) turned out to be 8.1 nM. Further, the IC50 with UM-UC-9 engineered cells was 12.2 nM.
For `COc1cc(-c2cc(C(=O)N3CC[C@H](C(=O)NCc4sc(C)nc4C(F)(F)F)CC34CC4)[nH]n2)c(F)cn1` [Example 517, (S)-4-(3-(5-fluoro-2-methoxypyridin-4-yl)-1H-pyrazole-5-carbonyl)-N-((2-methyl-4-(trifluoromethyl)thiazol-5-yl)methyl)-4-azaspiro[2.5]octane-7-carboxamide], the AC50 at His6-TEV-PPARγ-(234-505) came out at 7.9 nM. Further, the IC50 with UM-UC-9 engineered cells (Homo sapiens, UM-UC-9, 144 h) came to 20.3 nM.
Taken in the same sequence, the figures for `COc1cc(-c2cc(C(=O)N3CCC(C(=O)NCc4cc5cc[nH]c5cn4)CC3)n[nH]2)c(Cl)cn1` [Example 212, N-((1H-pyrrolo[2,3-c]pyridin-5-yl)methyl)-1-(5-(5-chloro-2-methoxypyridin-4-yl)-1H-pyrazole-3-carbonyl)piperidine-4-carboxamide] were 79.2 nM and 782 nM.
Taken in the same sequence, the figures for `COc1cc(-c2cc(C(=O)N3CCC(C(=O)NC4CCC(O)(C(F)(F)F)CC4)CC3)n[nH]2)c(Cl)cn1` (mixture of isomers) [Example 144, 1-(5-(5-chloro-2-methoxypyridin-4-yl)-1H-pyrazole-3-carbonyl)-N-(4-hydroxy-4-(trifluoromethyl)cyclohexyl)piperidine-4-carboxamide] were 44.7 nM and 334 nM.
For `COc1cc(-c2cc(C(=O)N3CC[C@@H](C(=O)NCc4cccc(Cl)c4)CC34CC4)n[nH]2)c(Cl)cn1` (single isomer, unassigned) [Example 245-B], in that order: 109 nM and 415 nM.
Turning to `CCO[C@]1(C(F)(F)F)CC[C@@H](NC(=O)[C@H]2CCN(C(=O)c3cc(-c4cc(C)ncn4)[nH]n3)C3(CC3)C2)CC1` (single isomer, unassigned) [Example 308-C], at His6-TEV-PPARγ-(234-505), the AC50 came to 2 nM. In the experiment on UM-UC-9 engineered cells (Homo sapiens, UM-UC-9, 144 h), the IC50 amounted to 5.9 nM.
For `COc1cc(-c2cc(C(=O)N3CCC(C(=O)NCc4cccc5[nH]ccc45)CC3)n[nH]2)c(Cl)cn1` [Example 190, N-((1H-indol-4-yl)methyl)-1-(5-(5-chloro-2-methoxypyridin-4-yl)-1H-pyrazole-3-carbonyl)piperidine-4-carboxamide], in that order: 24 nM and 91.8 nM.
Regarding `COc1cc(-c2cc(C(=O)N3CC[C@H](C(=O)NC4CCC5CCCN5C4)CC34CC4)n[nH]2)c(F)cn1` (single isomer, unassigned) [Example 376-C], on His6-TEV-PPARγ-(234-505), the AC50 is 19.2 nM. The IC50 in the experiment with UM-UC-9 engineered cells is 23.6 nM.
Turning to `Cc1cc(-c2cc(C(=O)N3[C@@H]4CC[C@H]3C[C@H](C(=O)NCc3ccc5[nH]nc(F)c5c3)C4)n[nH]2)c(F)cn1` [Example 284, (1R,3s,5S)—N-((3-fluoro-1H-indazol-5-yl)methyl)-8-(5-(5-fluoro-2-methylpyridin-4-yl)-1H-pyrazole-3-carbonyl)-8-azabicyclo[3.2.1]octane-3-carboxamide], on His6-TEV-PPARγ-(234-505), the AC50 is 2.3 nM. Moreover, the IC50 in the experiment with UM-UC-9 engineered cells (Homo sapiens, UM-UC-9, 144 h) was 12.1 nM.
For `COc1cc(-c2cc(C(=O)N3CC[C@H](C(=O)N[C@@H]4CN(c5ccc(C)nc5)C[C@H]4F)CC34CC4)n[nH]2)c(F)cn1` [Example 426, (S)—N-((3R,4R)-4-fluoro-1-(6-methylpyridin-3-yl)pyrrolidin-3-yl)-4-(5-(5-fluoro-2-methoxypyridin-4-yl)-1H-pyrazole-3-carbonyl)-4-azaspiro[2.5]octane-7-carboxamide], at His6-TEV-PPARγ-(234-505), the AC50 was found to be 24 nM. In the experiment on UM-UC-9 engineered cells (Homo sapiens, UM-UC-9, 144 h), the IC50 came out at 50.9 nM.
Taken in the same sequence, the figures for `COc1cc(-c2cc(C(=O)N3CC[C@H](C(=O)NCc4nc(N5C[C@@H](C)N[C@@H](C)C5)oc4C(F)(F)F)CC34CC4)n[nH]2)c(F)cn1` [Example 482, (S)—N-((2-((3S,5R)-3,5-dimethylpiperazin-1-yl)-5-(trifluoromethyl)oxazol-4-yl)methyl)-4-(5-(5-fluoro-2-methoxypyridin-4-yl)-1H-pyrazole-3-carbonyl)-4-azaspiro[2.5]octane-7-carboxamide] were 29.5 nM and 270 nM.
With “(S)-1-(5-(5-fluoro-2-methoxypyridin-4-yl)-1H-pyrazole-3-carbonyl)-N-((1r,4S)-4-hydroxy-4-(trifluoromethyl)cyclohexyl)-2,2-dimethylpiperidine-4-carboxamide and (R)-1-(5-(5-fluoro-2-methoxypyridin-4-yl)-1H-pyrazole-3-carbonyl)-N-((1r,4R)-4-hydroxy-4-(trifluoromethyl)cyclohexyl)-2,2-dimethylpiperidine-4-carboxamide [Example 407]”, the AC50 at His6-TEV-PPARγ-(234-505) stood at 30.3 nM. Moreover, in the experiment on UM-UC-9 engineered cells, the IC50 was 23 nM.
For `COc1cc(-c2cc(C(=O)N3CCC(C(=O)NCc4cnccc4C)CC3)n[nH]2)c(Cl)cn1` [Example 131, 1-(5-(5-chloro-2-methoxypyridin-4-yl)-1H-pyrazole-3-carbonyl)-N-((4-methylpyridin-3-yl)methyl)piperidine-4-carboxamide], on His6-TEV-PPARγ-(234-505), the AC50 worked out at 494 nM. In the experiment with UM-UC-9 engineered cells (Homo sapiens, UM-UC-9, 144 h), the IC50 is 2610 nM.

These data come from US12606541B2, “PPARg modulators and methods of use” (Eisai R&D Management Co., Ltd., priority 2020, dated 2026).
